Data on twelve molecules can be found in ChEMBL document CHEMBL4049458, “Structure-Based Optimization of Thiophene[3,2-d]pyrimidine Derivatives as Potent HIV-1 Non-nucleoside Reverse Transcriptase Inhibitors with Improved Potency against Resistance-Associated Variants” (J Med Chem, 2017).

Molecules are shown by their SMILES. Some results are limits rather than exact numbers.

The test system of data set [1] is Human immunodeficiency virus 1. The experiment in a line: Antiviral activity against wild type HIV1 3B harboring reverse transcriptase infected in human MT4 cells assessed as protection against virus induced cytotoxicity after 5 days by MTT assay. In kind it is functional, cell-based. To be noted: Human immunodeficiency virus 1, 3B, MT4, 120 h. On the technique in general: Formazan colour is commonly taken as a measure of viable cells.

A short description of data set [2]: Cytotoxicity against human MT4 cells assessed as cell viability after 5 days by MTT assay. In kind it is cell-based.
For data set [3], the system named is Human immunodeficiency virus 2. The experiment in a line: Antiviral activity against HIV2 ROD harboring reverse transcriptase infected in human MT4 cells assessed as protection against virus induced cytotoxicity after 5 days by MTT assay. In kind it is functional, cell-based. To be noted: Human immunodeficiency virus 2, ISOLATE ROD, MT4, 120 h.
A short description of data set [4]: Selectivity index, ratio of CC50 for human MT4 cells to EC50 for wild type HIV1 3B harboring reverse transcriptase infected in human MT4 cells.
A short description of data set [5]: Selectivity index, ratio of CC50 for human MT4 cells to EC50 for reverse transcriptase L100I mutant in human MT4 cells infected HIV1 3B.
Data set [6] in a line: Selectivity index, ratio of CC50 for human MT4 cells to EC50 for reverse transcriptase K103N mutant in human MT4 cells infected HIV1 3B.
Data set [7] is described as follows: Selectivity index, ratio of CC50 for human MT4 cells to EC50 for reverse transcriptase Y181C mutant in human MT4 cells infected HIV1 3B.
The nature of data set [8]: Selectivity index, ratio of CC50 for human MT4 cells to EC50 for reverse transcriptase Y188L mutant in human MT4 cells infected HIV1 3B.
Data set [9] in a line: Selectivity index, ratio of CC50 for human MT4 cells to EC50 for reverse transcriptase E138K mutant in human MT4 cells infected HIV1 3B.
Data set [10] in a line: Selectivity index, ratio of CC50 for human MT4 cells to EC50 for reverse transcriptase F227L/V106A double mutant in human MT4 cells infected HIV1 3B.
Data set [11] is described as follows: Selectivity index, ratio of CC50 for human MT4 cells to EC50 for HIV1 RES056 reverse transcriptase K103N/Y181C double mutant infected in human MT4 cells.

With `Cc1cc(C#N)cc(C)c1Oc1nc(NC2CCC(NCc3cccc(C(N)=O)c3)CC2)nc2ccsc12` (stereo unspecified), in data set [1], the EC50 was determined as 0.135 µM. In data set [2], the CC50 at 120 h worked out at 9.21 µM.
With `Cc1cc(C#N)cc(C)c1Oc1nc(NC2CCN(Cc3ccc(S(N)(=O)=O)cc3)CC2C(=O)O)nc2ccsc12` (stereo unspecified), the EC50 in data set [1] is 0.723 µM; in [3], above 27.6 µM. Moreover, the CC50 at 120 h in [2] turned out to be 27.6 µM. Further, the selectivity ratio in data set [4] (MT4 cells) came out at 38; in [5] (MT4 cells), 17; in data set [6] (MT4 cells), 33; in data set [7] (MT4 cells) it was 8; in [8] (MT4 cells), 9; in [9] (MT4 cells) it was 8. Moreover, the selectivity ratio is 11 in data set [10] (MT4 cells) and below 1 in data set [11] (MT4 cells).
Consider `Cc1cc(/C=C/C#N)cc(C)c1Oc1nc(NC2CCN(Cc3cccc(C(N)=O)c3)CC2)nc2ccsc12`, for which the EC50 in data set [1] is 0.00326 µM; in data set [3] it was above 3.53 µM. The CC50 at 120 h in [2] came out at 3.53 µM. For the same molecule, the selectivity ratio in [4] (MT4 cells) worked out at 1080; in data set [5] (MT4 cells) it was 689; in [6] (MT4 cells) it was 1190; in data set [7] (MT4 cells), 563; in data set [8] (MT4 cells) it was 129; in data set [9] (MT4 cells), 551. In addition, the selectivity ratio is 448 in data set [10] (MT4 cells) and 81 in [11] (MT4 cells).
As to `Cc1cc(C#N)cc(C)c1Oc1nc(NC2CCC(NCc3ccc(C#N)cc3)CC2)nc2ccsc12` (stereo unspecified), the EC50 in [1] is 3.81 µM; in [3] it was above 5.15 µM. Moreover, the CC50 at 120 h in [2] worked out at 5.15 µM. For the same molecule, the selectivity ratio is 1.3 in data set [4] (MT4 cells); below 1 in [5] (MT4 cells); below 1 in [6] (MT4 cells); below 1 in data set [7] (MT4 cells); at most 1 in [8] (MT4 cells); below 1 in [9] (MT4 cells). The selectivity ratio in [10] (MT4 cells) and in data set [11] (MT4 cells) was below 1 throughout.
Take `Cc1cc(/C=C/C#N)cc(C)c1Oc1nc(NC2CCN(Cc3cccc(F)c3)CC2)nc2ccsc12`: the EC50 in [1] was 0.00973 µM; in data set [3], above 4.76 µM. Also, the CC50 at 120 h in [2] turned out to be 4.76 µM. The selectivity ratio in [4] (MT4 cells) stood at 489; in [5] (MT4 cells), 216; in data set [6] (MT4 cells) it was 226; in data set [7] (MT4 cells) it was 138; in [8] (MT4 cells), 30; in [9] (MT4 cells) it was 150. Further, the selectivity ratio in [10] (MT4 cells) came out at 84; in data set [11] (MT4 cells), 38.
With `Cc1cc(C#N)cc(C)c1Oc1nc(NC2CCC(NCc3ccc(C(N)=O)cc3)CC2)nc2ccsc12` (stereo unspecified), the EC50 in [1] is 0.121 µM. Besides, the CC50 at 120 h in data set [2] turned out to be 7.72 µM.
For `Cc1cc(C#N)cc(C)c1Oc1nc(NC2CCCN(Cc3ccc(C(N)=O)cc3)C2)nc2ccsc12` (stereo unspecified), in data set [1], the EC50 was determined as 3.22 µM. For the same molecule, in [2], the CC50 at 120 h amounted to 19.5 µM.
Consider `O=C1Nc2ccc(Cl)cc2[C@@](C#CC2CC2)(C(F)(F)F)O1` [EFAVIRENZ], for which, in [2], the CC50 at 120 h was above 6.33 µM.
Take `Cc1cc(/C=C/C#N)cc(C)c1Oc1nc(NC2CCN(Cc3ccc(C(N)=O)cc3)CC2)nc2ccsc12`: the EC50 in [1] is 0.00126 µM. For the same molecule, the CC50 at 120 h in data set [2] was at least 3.15 µM.
As for `Cc1cn([C@H]2C[C@H](N=[N+]=[N-])[C@@H](CO)O2)c(=O)[nH]c1=O` [ZIDOVUDINE], the EC50 in data set [1] came out at 0.00581 µM. In addition, the CC50 at 120 h in data set [2] was above 7.48 µM. For the same molecule, the selectivity ratio in [4] is 625; in data set [5] it was above 1990; in data set [6] it was above 1430; in [7] it was above 1120; in data set [8], above 1180; in [9], above 1030. The selectivity ratio in [10] was above 1560; in [11], above 675.
For the molecule `Cc1cc(C#N)cc(C)c1Oc1nc(NC2CCCN(Cc3ccc(S(N)(=O)=O)cc3)C2)nc2ccsc12` (stereo unspecified), in [1], the EC50 is above 1.17 µM. The CC50 at 120 h in data set [2] was found to be 1.17 µM.
Regarding `Cc1ccnc2c1NC(=O)c1cccnc1N2C1CC1` [NEVIRAPINE], in data set [2], the CC50 at 120 h is above 15 µM.

One may read the EC50 as the midpoint of the concentration-response curve. The CC50 is the concentration at which the toxic effect on the cells reaches its halfway point.
